Data published in patent publication US5985261A, “Use of thioredoxin-like molecules for induction of MnSOD to treat oxidative damage” (National Jewish Medical and Research Center, priority 1997, dated 1999).
Starred links: 1 amine or outer side, 2 acyl side, 3 side chain; linkers in the order of their positions; H or OH if unused. Positions of bridges follow the written chain, without caps; N, C: chain ends. Non-standard residues stand in square brackets, D forms with d. Residues, ends and D or L forms follow the SMILES beside them. Chains are numbered I, II in the order given. Actinocin(9to1) = Cc1c2oc3c(C)ccc(C(=O)[*:1])c3nc-2c(C(=O)[*:2])c(N)c1=O; NMeV = CN[C@H](C(=O)O)C(C)C; Sar = CNCC(=O)O

Tested on: MnSOD mRNA in A549 cells
Test: Effect on MnSOD mRNA induction by thioredoxin in A549 cells (Northern blot)
Assay type: cell-based, human
Procedure: Reduced thioredoxin (recombinant, E. coli; Promega) was prepared by treating 1 mM thioredoxin with 2 mM dithiothreitol (DTT) for 20 min at room temperature followed by removal of excess DTT using a G-25 spin column. A549 cells were grown in F-12K medium with 10% serum. Confluent monolayers were treated with oxidized thioredoxin (3 or 7 μM), with and without the thioredoxin reducing system [thioredoxin reductase (0.1 μM)+NADPH (2 mM)]. Incubations were for 16 hours. Total RNA was isolated from cells by guanidine isothiocyanate lysis and cesium chloride centrifugation of the lysate (147,000× g, 20-25° C.) in an ultracentrifuge (Beckman) by the methods of Sambrook et al., ibid. Total RNA was quantified spectrophotometrically.
Twenty micrograms of RNA was resolved by electrophoresis in 1% agarose, 2.5 M formaldehyde gel in a buffer containing 20 mM MOPS and 1 mM EDTA (pH 7.4). RNA was transferred to nitrocellulose and blots were prehybridized 2-12 hours in 50% formamide, 0.75 M sodium chloride, 0.075 M sodium citrate (pH 7.0), 5× Denhardt's solution, 50 μg/ml salmon sperm DNA, and 0.1% SDS at 42° C. Blots were hybridized with cDNA for MnSOD labeled to a specific activity of 2-7×10^7 cpm using ^32 P-γ CTP (ICN) in hybridization solution at 42° C. overnight and then were washed in 0.3 M sodium chloride, 0.03 M sodium citrate, 0.1% SDS at 42° C. Autoradiographs were made by exposing blots to x-ray film (Kodak) at -70° C. with intensifying screens. Blots were exposed to phosphor-imager screens (Molecular Dynamics) and densitometry was performed with a Macintosh computer using MD Image Quant Version 3.35.
To evaluate the effect of oxidation of TRX-SH2 on MnSOD induction, A549 cells were incubated with diamide (2 mM; 30 min) or CDNB (100 μM; 45 min). After incubation, cells were washed and fresh medium added. The cells next were incubated with oxidized thioredoxin (28 μM; 6 h) and then processed for Northern analysis as described in Example 2.
A549 cells were incubated with actinomycin D ([…]), a transcriptional inhibitor, or cyclohexamide (10 μg/ml), a translation inhibitor, for 1 hour followed by addition of thioredoxin (28 μM) and further incubation for a period of 16 hours. mRNA was quantified as previously described.

## O=[N+]([O-])c1ccc(Cl)c([N+](=O)[O-])c1 [CDNB]
CDNB 100 μM, 45 min, washed, then oxidized thioredoxin 28 μM, 6 h
  effect on increased expression of MnSOD mRNA by thioredoxin: prevented increased expression of MnSOD mRNA by thioredoxin

## CN(C)C(=O)/N=N/C(=O)N(C)C [diamide]
Diamide 2 mM, 30 min, washed, then oxidized thioredoxin 28 μM, 6 h
  effect on elevation of MnSOD mRNA by thioredoxin: prevented elevation of MnSOD mRNA by thioredoxin

## C[C@@H]1C[C@@H]([C@H](O)CC2CC(=O)NC(=O)C2)C(=O)[C@@H](C)C1 [Cycloheximide, cycloheximide]
Cyclohexamide 10 μg/ml, 1 hour, then thioredoxin 28 μM, 16 hours
  effect on thioredoxin-mediated increase in MnSOD mRNA: potentiated the thioredoxin-mediated increase in MnSOD mRNA

## Cc1c2oc3c(C)ccc(C(=O)N[C@@H]4C(=O)N[C@H](C(C)C)C(=O)N5CCC[C@H]5C(=O)N(C)CC(=O)N(C)[C@@H](C(C)C)C(=O)O[C@@H]4C)c3nc-2c(C(=O)N[C@@H]2C(=O)N[C@H](C(C)C)C(=O)N3CCC[C@H]3C(=O)N(C)CC(=O)N(C)[C@@H](C(C)C)C(=O)O[C@@H]2C)c(N)c1=O [actinomycin D] (I: T[dV]P[Sar][NMeV] / II: T[dV]P[Sar][NMeV]; ester I:1-I:C, II:1-II:C; linker I:N-II:N via Actinocin(9to1))
Actinomycin D, 1 hour, then thioredoxin 28 μM, 16 hours
  effect on production of MnSOD mRNA: inhibited
